Assay [1] has as its system retinal ganglion cells (RGCs). Particulars: previous studies, cited from earlier work.
Assay [2] has as its system retinal ganglion cells (RGCs). The assay can be described thus: Viability of acutely axotomized retinal ganglion cells in culture (DAPI retrograde labeling, calcein-AM staining) at 72 hours. Particulars: for rescue of RGCs (in words): at 100 μM. The class given is cell-based, rat. On the procedure: DAPI binds to nuclear DNA and fluoresces under UV light. At postnatal days eleven to thirteen, the animals were sacrificed by decapitation, the eyes enucleated, and the retinas dissected in Hank's balanced salt solution (HBSS). After two incubations in enzyme solution containing papain (3.7 U/ml), each for 30 minutes at 37° C., the retinas were gently triturated with a Pasteur pipette and plated on poly-L-lysine-coated 96-well flat-bottomed tissue culture plates (0.32 cm^2 surface area/well) at a density of approximately 2000 cells/mm^2. The cells were cultured for 72 hours in Neurobasal-A, B27 supplement lacking antioxidants in a humidified 5% CO2 incubator at 37° C.
Retinal Ganglion Cell Identification and Counting: RGCs were identified by the presence of DAPI, which appears blue when viewed with appropriate filters under epifluorescence. Cell viability was determined by metabolism of calcein-AM, which produces a green fluorescence when viewed with fluorescein filters. Cells were incubated in a 1 μM solution of calcein-AM in phosphate-buffered saline (PBS) for 30 minutes, after which the medium was replaced with fresh PBS. Wells were counted in duplicate or in triplicate.
Statistical Analysis: All RGC viability calculations were normalized to the control (no treatment) condition by dividing the mean number of living RGCs in an experimental condition by the mean in controls. Comparisons were by unpaired t-test.

Assay [3] deals with RGCs. Particulars: after one to twelve weeks; written in present tense.
Excerpt: Unilateral experimental glaucoma is induced in the rat using the Quigley protocol for laser ablation of the trabecular meshwork and of the circumferential episcleral vessels. […] The animals are anesthetized as in Example 2. A diode laser at 532 nm (0.2-0.4 watts and 0.3-0.7 second duration, depending on degree of pigmentation) is used to administer laser treatment at the trabecular meshwork and at the episcleral veins draining the perilimbal vessel plexus of vessel. In case a milder IOP rise is required, animals can be treated only at the trabecular meshwork. The laser treatment is repeated at 1 week if the IOP difference between the treated eye and the untreated eye is less than 6 mm Hg. Following laser treatment, sterile drug (i.e. PB1 or PB2) or control (BSS) is administered.
IOP is measured by putting a drop of 0.5% proparacaine in the eye, gently cradling the rat and touching the anesthetized eye with a Tonopen tonometer tip for a fraction of a second, usually for 3±2 times, more if the standard deviation is high. […] Depending on the experiment, the IOP is initially measured daily and then weekly.
After one to twelve weeks animals are sacrificed and RGC counts are performed as described in Example 2.
Assay [4] concerns RGCs. Kind of assay: RGC death after optic nerve crush in vivo, intravitreal injection, RGC density in retinal whole mounts. The arrangement: species or system rat. Particulars: 7 to 14 days after optic nerve crush, written in present tense. As for the experimental part: Optic Nerve Crush Surgery and Intravitreal Injections: Surgeries are conducted on adult (i.e. eight to twelve week old) rats that have previously received 1,1′-dioctadecyl-3,3,3′,3′-tetramethylindocarbocyanine (DiI) injections. All surgeries are done aseptically and are performed on the left eye only. Animals are anesthetized with a mixture of ketamine and xylazine. A limited lateral canthotomy is performed. The conjunctiva is then incised at the limbus and the subtenons space bluntly dissected posteriorly. […] The muscle cone is then entered and the optic nerve exposed. A longitudinal incision is made along the meningeal sheath to expose the optic nerve axons and to avoid disturbing the retinal blood supply. The axons of the optic nerve are then crushed with blunt forceps for 5 seconds 2 mm posterior to the globe under direct visualization. […]
RGC Density Determination: Retinal wholemounts are imaged with an Axiocarn HRc digital camera attached to a Zeiss Axiophot fluorescent microscope. […] The density of RGCs/mm^2 is determined by counting labeled DiI cells in three areas per retinal quadrant at three different eccentricities of the retinal radius for a total of twelve regions per retina. Cells positive for both DiI and BSL-I, as determined by bright yellow labeling when DiI (red) and BSL-I (green) images are merged, are subtracted from the total DiI count. […]

Assay [5] concerns RGCs. Particulars: injected intravitreally into adult rats, previous studies; cited from earlier work.
[6] abbreviates: at 1 μM and 100 μM, 72 hours, p<0.05.

With `O[C@H](CS)[C@H](O)CS` (racemic) [DTT, dithiothreitol], in assay [1], the “effectiveness at nanomolar concentrations (in words)” value is given as “not effective”.

For `O=C(O)c1ccccc1P(c1ccccc1)c1ccccc1` [2DPBA, 2-(diphenylphosphino)benzoic acid], in assay [2] (10 nM, 72 hours), the “relative RGC survival (compared to control)” value (shortened to “relative RGC survival”) is reported as 216±18%. Besides, the “neuroprotection of RGCs (in words)” value in assay [2] (setting [6]) is listed as “significant protection”. Moreover, the “concentration at which neuroprotective for RGCs (lowest)” value (“concentration at which neuroprotective” for short) in assay [2] (dose response, 72 hours) is recorded as 10 nM.

For `O=S(=O)([O-])c1cccc(P(c2cccc(S(=O)(=O)[O-])c2)c2cccc(S(=O)(=O)[O-])c2)c1.[Na+].[Na+].[Na+]` [3BSA, 3,3′,3″-phosphinidynetris(benzene-sulfonic acid) trisodium salt], the “relative RGC survival” value in assay [2] (100 μM, 72 hours) is reported as 206±6%. The “rescue of RGCs (in words)” value in assay [2] (72 hours) is “rescue RGCs”.

In the case of `O=C(O)c1ccc(P(c2ccccc2)c2ccccc2)cc1` [4DPBA, 4-(diphenylphosphino)benzoic acid], the “relative RGC survival” value in assay [2] (1 μM, 72 hours) was 183±19%. Further, the “neuroprotection of RGCs (in words)” value in assay [2] (setting [6]) is listed as “neuroprotection”.

Turning to `[BH3-][P+](CCC(=O)OC)(CCC(=O)OC)c1ccccc1` [PB1, bis(3-propionic acid methyl ester)phenylphosphine borane complex], the “RGC cell death compared to controls (in words)” value with RGCs [3] is “attenuated”. The “relative RGC survival” value in assay [2] (1 nM, 72 hours after axotomy) is recorded as 174±12%. In assay [2] (at picomolar concentrations, 72 hours), the “neuroprotection of RGCs (in words)” value is on record as “highly effective”. In assay [2] (dose response, 72 hours), the “concentration at which neuroprotective” value is on record as ≥ 1 nM. Also, the “RGC density compared to controls (in words)” value with RGCs [4] is given as “greater RGC density”.

Turning to `[BH3-][P+](CCC(=O)OC)(c1ccccc1)c1ccccc1` [PB2, (3-propionic acid methyl ester)diphenylphosphine borane complex], the “RGC cell death compared to controls (in words)” value in the assay with RGCs [3] is reported as “attenuated”. Moreover, the “relative RGC survival” value in assay [2] (10 pM, 72 hours after axotomy) is 180±10%. Also, the “concentration at which neuroprotective” value in assay [2] (dose response 1 pM to 100 μM, 72 hours) was ≥ 0.01 nM. In addition, the “RGC density compared to controls (in words)” value in the assay on RGCs [4] is “greater RGC density”.

Turning to `O=C(O)CCP(CCC(=O)O)CCC(=O)O` [TCEP, tris-(2-carboxyethyl) phosphine], in assay [1], the “effectiveness at nanomolar concentrations (in words)” value is “not effective” and the “concentration required for RGC neuroprotection” value is ~100 µM. In assay [2] (72 hours), the “rescue of RGCs (in words)” value is “mildly rescued RGCs”. For the same compound, the “RGC death after optic nerve crush (in words)” value in the assay with RGCs [5] is “inhibited RGC death”.

The record behind these values is US7932239B2, “Methods of and compositions for reducing neuronal cell death” (Wisconsin Alumni Research Foundation, priority 2005, dated 2011).
